SMILES strings stand for the structures. Where a name gives a salt, the structure may show the parent alone.

In the first assay the target is T1, SHIP1 (Homo sapiens, UniProt Q92835).
T1 sequence (Q92835 396-858): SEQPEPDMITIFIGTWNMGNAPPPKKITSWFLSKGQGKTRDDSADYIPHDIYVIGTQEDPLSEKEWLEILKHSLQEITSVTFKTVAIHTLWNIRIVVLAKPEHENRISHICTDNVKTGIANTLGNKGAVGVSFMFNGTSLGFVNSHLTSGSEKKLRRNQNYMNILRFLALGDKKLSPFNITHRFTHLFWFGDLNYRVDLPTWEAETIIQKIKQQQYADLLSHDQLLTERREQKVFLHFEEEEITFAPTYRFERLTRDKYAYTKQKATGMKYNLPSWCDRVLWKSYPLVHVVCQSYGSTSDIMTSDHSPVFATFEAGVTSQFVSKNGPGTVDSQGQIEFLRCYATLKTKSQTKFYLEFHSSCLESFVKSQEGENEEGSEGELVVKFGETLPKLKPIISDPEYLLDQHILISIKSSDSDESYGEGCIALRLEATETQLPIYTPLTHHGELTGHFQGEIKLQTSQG
The assay can be described thus: Malachite green enzyme assay. The note with it: Table 1; PI(3,4,5)P3-diC8 52 μM, enzyme 10 nM, SHIP1 Ptase-C2, 25° C., pH7.4; geometric mean; read-out: SHIP1 IC50 μM (n). Type of assay: biochemical. From the text:
The inventors have performed a screen of 50K compounds at the SHIP1 phosphatase, analyzed a publicly available fragment-based screen, and evaluated inhibitors reported in the literature. They utilized the malachite green assay with PtdIns(3,4,5)P3-diC8 and SHIP1 Ptase-C2 to measure inhibitory potency. A Cellular Thermal Shift Assay was used to confirm target engagement in cells. A phosphoAKT assay was used to provide additional evidence of on-target activity. A high-content imaging assay measuring phagocytosis, cell number, and nuclear intensity was implemented using the BV2 and HMC3 cell lines to characterize cellular pharmacology and cytotoxicity. […] Inhibitors predicted to have drug-like properties were subjected to assays measuring solubility, cellular permeability, and mouse microsomal stability. A physiological based pharmacokinetic model was compared to measured exposure in vivo for select compounds upon oral administration in mice.
Malachite Green Enzyme Assay. […] Compounds diluted in DMSO were added to 384-well plates. Enzyme solution was added. After a 20 min incubation period, the reaction was initiated by addition of PI(3,4,5)P3-diC8. Final compound concentrations ranged from 50 nM to 950 μM. Final reaction concentrations for the PI(3,4,5)P3-diC8 substrate and the enzyme were 52 μM and 10 nM respectively. The reaction was quenched after 10 min by adding Malachite BioMol Green (Enzo Lifesciences, PA, USA). Plates were then incubated for 30 min at room temperature. Absorbance (620 nm) was measured using a SpectraMax Me5 Microplate Reader (Molecular Devices, LLC, USA). IC50 values were calculated by fitting absorbance versus inhibitor concentration.
Compounds diluted in DMSO were added to 384-well plates. Enzyme solution was added. After a 20 min incubation period, the reaction was initiated by addition of PI(3,4,5)P3-diC8. Final compound concentrations ranged from 50 nM to 950 μM. Final reaction concentrations for the PI(3,4,5)P3-diC8 substrate and the enzyme were 52 μM and 10 nM respectively. The reaction was quenched after 10 min by adding Malachite BioMol Green (Enzo Lifesciences, PA, USA). Plates were then incubated for 30 min at room temperature. Absorbance (620 nm) was measured using a SpectraMax Me5 Microplate Reader (Molecular Devices, LLC, USA). IC50 values were calculated by fitting absorbance versus inhibitor concentration and are reported as the geometric mean and standard error of mean with the number of repeats (n) indicated. Compounds and activities are as depicted in tables 1 and 2 above.
Turning to `c1ccc(COc2cncc(-c3cnn(C4CCNCC4)c3)c2)cc1` [Compound 14, 3-(benzyloxy)-5-(1-(piperidin-4-yl)-1H-pyrazol-4-yl)pyridine trifluoroacetate], the 50% inhibitory concentration (IC50) – broadly, the concentration needed to halve the response being measured – turned out to be 208 µM.
Turning to `CC(C)(C)OC(=O)N1CCC(n2cc(-c3cncc(OCc4ccc(Cl)cc4)c3)cn2)CC1` [Compound 6, tert-butyl 4-(4-(5-((4-chlorobenzyl)oxy)pyridin-3-yl)-1H-pyrazol-1-yl)piperidine-1-carboxylate], the IC50 was determined as 137 µM.
`COC(=O)N1CCC(n2cc(-c3cncc(OCc4ccccc4Cl)c3)cn2)CC1` [Compound 17, Methyl 4-(4-(5-((2-chlorobenzyl)oxy)pyridin-3-yl)-1H-pyrazol-1-yl)piperidine-1-carboxylate]: the IC50 was found to be 133 µM.
Regarding `O=C(c1ccccc1)N1CCC(n2cc(-c3cncc(OCc4ccccc4Cl)c3)cn2)CC1` [Compound 18, (4-(4-(5-((2-chlorobenzyl)oxy)pyridin-3-yl)-1H-pyrazol-1-yl)piperidin-1-yl)(phenyl)methanone], the IC50 was determined as 99.2 µM.
With `Brc1ccc(COc2cncc(-c3cnn(C4CCNCC4)c3)c2)cc1` [Compound 12, 3-((4-bromobenzyl)oxy)-5-(1-(piperidin-4-yl)-1H-pyrazol-4-yl)pyridine hydrochloride], the IC50 was 29.7 µM.
As to `Clc1ccc(COc2cncc(-c3cnn(C4CCNCC4)c3)c2)cc1` [Compound 11, 3-((4-chlorobenzyl)oxy)-5-(1-(piperidin-4-yl)-1H-pyrazol-4-yl)pyridine hydrochloride], the IC50 amounted to 109 µM.
Still for that read-out and setting: the result for `CC(C)(C)OC(=O)N1CCC(n2cc(-c3cncc(OCc4ccc(Cl)cc4Cl)c3)cn2)CC1` [Compound 8, tert-butyl 4-(4-(5-((2,4-dichlorobenzyl)oxy)pyridin-3-yl)-1H-pyrazol-1-yl)piperidine-1-carboxylate] reads 18.1 µM.

The target in another assay is T2, HiBit-labeled full length SHIP1 protein (Homo sapiens, UniProt Q92835).
T2 construct: thermal stability of a HiBit-labeled full length SHIP1 protein in intact cells; expressed in transfected cells; host or cells: HMC3 (stably transfected)
T2 sequence (Q92835 1-1189): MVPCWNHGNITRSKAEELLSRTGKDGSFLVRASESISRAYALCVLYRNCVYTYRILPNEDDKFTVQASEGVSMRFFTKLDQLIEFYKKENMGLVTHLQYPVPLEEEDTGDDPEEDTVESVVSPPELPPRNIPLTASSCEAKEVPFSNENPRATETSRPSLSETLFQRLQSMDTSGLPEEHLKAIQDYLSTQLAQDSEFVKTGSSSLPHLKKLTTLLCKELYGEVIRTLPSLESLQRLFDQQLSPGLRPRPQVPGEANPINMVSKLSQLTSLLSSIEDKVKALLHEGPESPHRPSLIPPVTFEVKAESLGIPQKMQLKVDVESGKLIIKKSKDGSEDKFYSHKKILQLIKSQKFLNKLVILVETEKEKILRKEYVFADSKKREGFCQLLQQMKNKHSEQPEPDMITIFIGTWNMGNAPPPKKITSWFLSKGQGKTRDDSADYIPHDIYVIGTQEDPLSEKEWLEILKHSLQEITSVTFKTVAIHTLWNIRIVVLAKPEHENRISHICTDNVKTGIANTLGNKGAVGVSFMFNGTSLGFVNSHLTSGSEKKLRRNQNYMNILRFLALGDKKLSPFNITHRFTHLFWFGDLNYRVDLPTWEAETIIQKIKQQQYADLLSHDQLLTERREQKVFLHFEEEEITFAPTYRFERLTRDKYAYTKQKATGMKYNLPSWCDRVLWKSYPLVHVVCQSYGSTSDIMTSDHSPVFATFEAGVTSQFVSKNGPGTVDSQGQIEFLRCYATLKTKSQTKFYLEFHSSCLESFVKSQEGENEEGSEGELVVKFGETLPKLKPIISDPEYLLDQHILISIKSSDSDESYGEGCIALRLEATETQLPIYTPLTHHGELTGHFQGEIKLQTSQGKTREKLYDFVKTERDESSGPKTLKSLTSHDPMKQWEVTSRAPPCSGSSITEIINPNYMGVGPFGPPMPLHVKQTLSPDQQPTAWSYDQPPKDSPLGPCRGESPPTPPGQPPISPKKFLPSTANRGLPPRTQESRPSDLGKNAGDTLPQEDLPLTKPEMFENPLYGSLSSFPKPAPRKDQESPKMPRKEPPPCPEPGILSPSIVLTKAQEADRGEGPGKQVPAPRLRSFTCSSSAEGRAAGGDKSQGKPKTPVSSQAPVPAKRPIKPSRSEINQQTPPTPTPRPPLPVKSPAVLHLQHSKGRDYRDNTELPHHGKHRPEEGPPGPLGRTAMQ
Kind of assay: Cellular thermal shift assay (SplitLuc CETSA), compound dose response. The format is cell-based. The note with it: HMC3/HiBit-INPP5D cells, 60 min, heated at 44.2° C. The procedure:
Cellular thermal shift assay (CETSA). […] This assay was run in the following two formats with HMC3/HiBit-INPP5D stably transfected cells.
2. Compound dose response: run at target Tm (44.2° C. for SHIP1) with compound dosing from 80 uM or 100 uM with 1:3 serial dilutions to generate an 8 point curve. Cells were treated for 60 min before being heated at target Tm for 3 min before luminescence detection. An AC50 was calculated using a four-parameter logistic curve regression model with change at highest concentration noted when difference from control >3SD, otherwise AC50 marked as “nc” for not calculated.
See Martinez et al. (2018) Sci Rep 8: p. 9472; Oh-Hashi et al. (2017) Biochem Biophys Rep 12: pp. 40-45. This assay was run in the following two formats with HMC3/HiBit-INPP5D stably transfected cells.
Compound dose response: run at target Tm (44.2° C. for SHIP1) with compound dosing from 80 uM or 100 uM with 1:3 serial dilutions to generate an 8-point curve. Cells were treated for 60 min before being heated at target Tm for 3 min before luminescence detection. The concentration that induced a half-maximum response (AC50) was calculated using a four-parameter logistic curve regression model with change at highest concentration noted when difference from control >3SD.
Turning to `O=C(OCc1ccccc1)N1CCC(n2cc(-c3cncc(OCc4ccccc4Cl)c3)cn2)CC1` [Compound 19, Benzyl 4-(4-(5-((2-chlorobenzyl)oxy)pyridin-3-yl)-1H-pyrazol-1-yl)piperidine-1-carboxylate], the “CETSA Min Inhibition (%)” value amounted to 72.1%.

The subject of another assay is BV2 cells. The assay can be described thus: pHrodo-myelin phagocytosis/cell health assay, BV2 cells. Type of assay: cell-based. The note with it: Mus musculus, BV-2, compound 48 hrs, 60 μM to 3 nM, (n) in cell. The procedure:
pHrodo-myelin phagocytosis/cell health assay with microglial cells. This 384-well plate high content imaging assay was developed to quantify phagocytosis and cell health simultaneously using either BV2 or HMC3 immortalized microglial cell lines or primary microglia isolated from mouse brain. Cells were cultured in DMEM GlutaMax media (ThermoFisher) containing 10% FBS and Pen-Strep in 37° C. 5% CO2 incubator.
Day 1: Cells were plated (Corning Falcon 384 well Optilux Black and clear bottom plates for imaging) with BV2 at 400 cells/45 μl/well, HMC3 at 600 cells/45 μl/well, or primary at 2000 cell/45 μl/well.
Day 2: Cells were treated with 10× serially diluted compounds in a dose range of 60 μM to 3 nM for 48 hrs at 37° C.
Day 3: Cells were seeded with pHrodo-myelin (for total 20 hrs) 24 hrs after starting compound treatment. The pHrodo-myelin stocks were at 1 mg/ml (protein equivalent) stored in −20° C. or −80° C. freezer. Stocks were thawed and diluted with culture media into 10× seeding solution (50 μg/ml) and added 5 μl/well to 384 well cell plate.
Day 4: Cell staining and imaging. Nuclear staining solution was prepared by adding 1 μl of 10 mg/mL Hoechst-33342 to every 1 ml culture media that will be added to cell plate at 20 μl/well. The final concentration of Hoechst-33342 to cells was about 2.5 μg/ml. Cell plates were incubated for >30 min at 37° C. before imaging. Cell plates were scanned with an ArrayScan automatic high content imaging system using a 10× objective lens, 4 fields/well collected. Three measurements were obtained 1) mean total phagocytosis spot intensity per cell, 2) total cell counts per well, and 3) mean average nuclear intensity per cell for cell health.
This 384-well plate high content imaging assay was developed to quantify phagocytosis and cell health simultaneously using either BV2 or HMC3 immortalized microglial cell lines or primary microglia isolated from mouse brain. Cells were cultured in DMEM GlutaMax media (ThermoFisher) containing 10% FBS and Pen-Strep in 37° C. 5% CO2 incubator. Day 1: Cells were plated (Corning Falcon 384 well Optilux Black and clear bottom plates for imaging) with BV2 at 400 cells/45 μl/well, HMC3 at 600 cells/45 μl/well, or primary at 2000 cell/45 μl/well. Day 2: Cells were treated with 10× serially diluted compounds in a dose range of 60 μM to 3 nM for 48 hrs at 37° C. Day 3: Cells were seeded with pHrodo-myelin (for total 20 hrs) 24 hrs after starting compound treatment. The pHrodo-myelin stocks were at 1 mg/ml (protein equivalent) stored in −20° C. or −80° C. freezer. Stocks were thawed and diluted with culture media into 10× seeding solution (50 μg/ml) and added 5 μl/well to 384 well cell plate. Day 4: Cell staining and imaging. Nuclear staining solution was prepared by adding 1 μl of 10 mg/mL Hoechst-33342 to every 1 ml culture media that will be added to cell plate at 20 μl/well. The final concentration of Hoechst-33342 to cells was about 2.5 μg/ml. Cell plates were incubated for >30 min at 37° C. before imaging. Cell plates were scanned with an ArrayScan automatic high content imaging system using a 10× objective lens, 4 fields/well collected. Three measurements were obtained 1) mean total phagocytosis spot intensity per cell, 2) total cell counts per well, and 3) mean average nuclear intensity per cell for cell health.
Turning to `O=C(OCc1ccccc1)N1CCC(n2cc(-c3cncc(OCc4ccccc4Cl)c3)cn2)CC1` [Compound 19, Benzyl 4-(4-(5-((2-chlorobenzyl)oxy)pyridin-3-yl)-1H-pyrazol-1-yl)piperidine-1-carboxylate], the EC50 – broadly, the midpoint of the concentration-response curve – is 958 nM.
